Common to all, as to test: biochemical
Parameters in all cases: DiscoveRx KINOMEscan active site-directed competition binding; percent of control kinase bound to immobilised ligand

In assay [1] the target is CAMK2A (Homo sapiens, UniProt Q9UQM7).
The target of assay [2] is T1, CDC2L1 (Homo sapiens, UniProt P21127).
T1 construct: gene CDK11B

Assay [3] concerns the target CHEK2 (Homo sapiens, UniProt O96017).
The target in assay [4] is T2, ERK4 (Homo sapiens, UniProt P31152).
T2 construct: gene MAPK4

The target of assay [5] is FES (Homo sapiens, UniProt P07332).
Assay [6] has as its target T3, JNK3 (Homo sapiens, UniProt P53779).
T3 construct: gene MAPK10

Assay [7] addresses T4, PIP5K2B (Homo sapiens, UniProt P78356).
T4 construct: gene PIP4K2B
T4 sequence (P78356 1-416): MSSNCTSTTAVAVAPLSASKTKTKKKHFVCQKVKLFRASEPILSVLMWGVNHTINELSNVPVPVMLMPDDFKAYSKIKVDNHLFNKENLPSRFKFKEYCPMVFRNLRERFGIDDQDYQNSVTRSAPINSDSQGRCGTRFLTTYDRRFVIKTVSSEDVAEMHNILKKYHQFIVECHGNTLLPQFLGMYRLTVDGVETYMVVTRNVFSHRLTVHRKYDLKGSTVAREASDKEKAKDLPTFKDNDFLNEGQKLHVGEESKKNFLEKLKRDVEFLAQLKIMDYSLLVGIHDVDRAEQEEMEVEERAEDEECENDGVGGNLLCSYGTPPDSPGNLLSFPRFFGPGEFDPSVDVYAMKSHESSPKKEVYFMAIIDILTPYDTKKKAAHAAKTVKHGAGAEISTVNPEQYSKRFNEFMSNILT

Assay [8] has as its target T5, PRKCI (Homo sapiens, UniProt P41743).
T5 sequence (P41743 1-596): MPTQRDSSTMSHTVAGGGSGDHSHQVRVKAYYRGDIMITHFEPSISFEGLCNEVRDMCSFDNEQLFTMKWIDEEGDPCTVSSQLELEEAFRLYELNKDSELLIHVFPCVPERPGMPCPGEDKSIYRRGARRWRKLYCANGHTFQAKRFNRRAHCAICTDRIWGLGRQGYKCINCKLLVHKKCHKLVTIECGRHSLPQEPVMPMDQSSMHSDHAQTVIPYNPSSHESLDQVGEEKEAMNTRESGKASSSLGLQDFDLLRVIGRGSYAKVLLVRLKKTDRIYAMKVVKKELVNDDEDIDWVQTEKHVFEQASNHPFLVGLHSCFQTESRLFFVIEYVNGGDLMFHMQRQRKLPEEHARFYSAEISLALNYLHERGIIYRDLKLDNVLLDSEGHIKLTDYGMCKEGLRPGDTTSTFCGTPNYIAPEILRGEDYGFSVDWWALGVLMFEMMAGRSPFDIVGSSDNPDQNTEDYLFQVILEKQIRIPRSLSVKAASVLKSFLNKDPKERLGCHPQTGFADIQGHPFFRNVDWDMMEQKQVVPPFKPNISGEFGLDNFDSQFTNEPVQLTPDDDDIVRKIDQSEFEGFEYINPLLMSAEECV

Assay [9] concerns the target T6, SNRK (Homo sapiens, UniProt Q9NRH2).
T6 sequence (Q9NRH2 1-765): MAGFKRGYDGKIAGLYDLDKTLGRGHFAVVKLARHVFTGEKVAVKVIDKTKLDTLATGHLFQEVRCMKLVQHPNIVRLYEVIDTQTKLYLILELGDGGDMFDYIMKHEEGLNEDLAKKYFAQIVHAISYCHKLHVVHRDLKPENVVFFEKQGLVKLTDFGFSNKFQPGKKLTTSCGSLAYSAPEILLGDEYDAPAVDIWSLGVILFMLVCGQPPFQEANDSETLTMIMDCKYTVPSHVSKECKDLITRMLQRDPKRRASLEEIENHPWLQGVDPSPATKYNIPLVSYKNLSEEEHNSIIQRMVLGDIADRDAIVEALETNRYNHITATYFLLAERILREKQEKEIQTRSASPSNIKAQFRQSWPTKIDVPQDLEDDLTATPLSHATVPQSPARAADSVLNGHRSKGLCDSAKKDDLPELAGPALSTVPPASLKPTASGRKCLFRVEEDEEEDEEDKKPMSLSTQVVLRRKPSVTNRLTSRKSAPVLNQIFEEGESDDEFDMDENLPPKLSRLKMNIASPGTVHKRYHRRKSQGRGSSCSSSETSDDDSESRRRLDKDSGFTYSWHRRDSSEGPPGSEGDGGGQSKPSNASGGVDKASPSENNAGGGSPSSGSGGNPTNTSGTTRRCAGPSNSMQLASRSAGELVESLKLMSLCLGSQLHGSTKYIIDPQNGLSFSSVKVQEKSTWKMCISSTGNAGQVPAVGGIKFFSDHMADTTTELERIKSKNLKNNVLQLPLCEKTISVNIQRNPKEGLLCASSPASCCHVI

The target of assay [10] is T7, YANK3 (Homo sapiens, UniProt Q86UX6).
T7 construct: gene STK32C

The mark [11] stands for this setting: read-out: Niraparib (MK-4827) / %Ctrl @ 10000nM.
[12] abbreviates: read-out: Talazoparib (BMN 673) / %Ctrl @ 10000nM.
[13] abbreviates: read-out: Rucaparib / %Ctrl @ 10000nM, binding competition, % of control.
The mark [14] stands for this setting: read-out: Olaparib / %Ctrl @ 10000nM.

Where two headings read alike, the source gives them in different places.

T7 sequence (Q86UX6 whole entry): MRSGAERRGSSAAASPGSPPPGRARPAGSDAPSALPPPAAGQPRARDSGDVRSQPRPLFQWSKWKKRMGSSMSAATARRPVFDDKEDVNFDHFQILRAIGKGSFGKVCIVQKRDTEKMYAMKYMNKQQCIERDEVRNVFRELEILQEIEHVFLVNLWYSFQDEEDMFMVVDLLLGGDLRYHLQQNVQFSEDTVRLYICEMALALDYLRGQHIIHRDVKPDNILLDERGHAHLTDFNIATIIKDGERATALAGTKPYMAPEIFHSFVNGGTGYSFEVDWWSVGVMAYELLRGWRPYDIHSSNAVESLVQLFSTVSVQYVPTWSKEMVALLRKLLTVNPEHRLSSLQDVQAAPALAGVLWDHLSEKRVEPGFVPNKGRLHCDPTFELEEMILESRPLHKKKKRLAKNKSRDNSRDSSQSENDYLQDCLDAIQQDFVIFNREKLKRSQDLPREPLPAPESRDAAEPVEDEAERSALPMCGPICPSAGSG
Sequence of FES (P07332 whole entry): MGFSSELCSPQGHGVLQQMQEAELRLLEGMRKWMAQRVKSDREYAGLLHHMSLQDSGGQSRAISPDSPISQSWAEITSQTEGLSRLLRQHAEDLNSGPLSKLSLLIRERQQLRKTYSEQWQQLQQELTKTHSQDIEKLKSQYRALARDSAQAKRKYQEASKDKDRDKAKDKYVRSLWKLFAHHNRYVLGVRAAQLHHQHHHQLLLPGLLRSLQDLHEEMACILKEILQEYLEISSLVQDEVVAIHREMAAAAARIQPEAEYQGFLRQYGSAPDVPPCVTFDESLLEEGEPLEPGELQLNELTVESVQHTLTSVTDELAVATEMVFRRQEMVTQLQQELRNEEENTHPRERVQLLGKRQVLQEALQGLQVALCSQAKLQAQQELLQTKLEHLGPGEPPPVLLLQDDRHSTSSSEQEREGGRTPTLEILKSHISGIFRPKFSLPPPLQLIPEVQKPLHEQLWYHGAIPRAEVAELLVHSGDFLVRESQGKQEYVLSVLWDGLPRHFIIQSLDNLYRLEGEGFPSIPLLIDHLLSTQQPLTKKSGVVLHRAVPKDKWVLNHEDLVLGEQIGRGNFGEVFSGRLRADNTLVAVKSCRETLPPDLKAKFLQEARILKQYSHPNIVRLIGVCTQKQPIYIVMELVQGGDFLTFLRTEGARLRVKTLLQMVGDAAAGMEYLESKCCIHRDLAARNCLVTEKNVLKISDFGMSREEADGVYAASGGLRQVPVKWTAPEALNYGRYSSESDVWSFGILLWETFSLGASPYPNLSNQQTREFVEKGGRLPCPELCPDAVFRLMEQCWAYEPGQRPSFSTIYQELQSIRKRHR
Sequence of CAMK2A (Q9UQM7 whole entry): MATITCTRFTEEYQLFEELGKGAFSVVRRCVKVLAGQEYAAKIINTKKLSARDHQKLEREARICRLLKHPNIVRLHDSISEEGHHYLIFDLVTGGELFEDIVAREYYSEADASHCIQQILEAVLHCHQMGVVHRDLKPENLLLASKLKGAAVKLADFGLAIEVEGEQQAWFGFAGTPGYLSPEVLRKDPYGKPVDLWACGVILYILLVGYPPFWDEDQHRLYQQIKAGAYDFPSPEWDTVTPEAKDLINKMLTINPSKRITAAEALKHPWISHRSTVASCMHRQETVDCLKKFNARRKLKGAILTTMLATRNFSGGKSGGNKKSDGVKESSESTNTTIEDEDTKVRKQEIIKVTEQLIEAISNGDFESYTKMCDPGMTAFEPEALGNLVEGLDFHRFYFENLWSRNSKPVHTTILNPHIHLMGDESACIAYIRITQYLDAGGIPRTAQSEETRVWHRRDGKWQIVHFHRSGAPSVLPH
T2 sequence (P31152 whole entry): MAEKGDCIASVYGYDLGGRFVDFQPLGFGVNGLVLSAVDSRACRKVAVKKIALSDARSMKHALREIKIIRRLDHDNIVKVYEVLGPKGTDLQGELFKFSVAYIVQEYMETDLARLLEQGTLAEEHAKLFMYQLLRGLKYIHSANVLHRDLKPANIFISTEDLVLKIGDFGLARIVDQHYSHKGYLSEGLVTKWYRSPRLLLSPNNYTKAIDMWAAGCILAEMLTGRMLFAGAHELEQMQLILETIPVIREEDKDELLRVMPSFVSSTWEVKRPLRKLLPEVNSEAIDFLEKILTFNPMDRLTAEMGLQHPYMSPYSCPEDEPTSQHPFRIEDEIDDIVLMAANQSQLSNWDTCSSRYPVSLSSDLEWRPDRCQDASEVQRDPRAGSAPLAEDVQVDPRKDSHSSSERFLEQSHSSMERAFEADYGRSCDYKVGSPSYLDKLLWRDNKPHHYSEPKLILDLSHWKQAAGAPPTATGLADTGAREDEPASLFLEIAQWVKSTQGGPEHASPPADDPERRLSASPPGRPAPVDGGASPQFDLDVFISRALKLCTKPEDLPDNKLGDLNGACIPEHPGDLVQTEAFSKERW
T3 sequence (P53779 whole entry): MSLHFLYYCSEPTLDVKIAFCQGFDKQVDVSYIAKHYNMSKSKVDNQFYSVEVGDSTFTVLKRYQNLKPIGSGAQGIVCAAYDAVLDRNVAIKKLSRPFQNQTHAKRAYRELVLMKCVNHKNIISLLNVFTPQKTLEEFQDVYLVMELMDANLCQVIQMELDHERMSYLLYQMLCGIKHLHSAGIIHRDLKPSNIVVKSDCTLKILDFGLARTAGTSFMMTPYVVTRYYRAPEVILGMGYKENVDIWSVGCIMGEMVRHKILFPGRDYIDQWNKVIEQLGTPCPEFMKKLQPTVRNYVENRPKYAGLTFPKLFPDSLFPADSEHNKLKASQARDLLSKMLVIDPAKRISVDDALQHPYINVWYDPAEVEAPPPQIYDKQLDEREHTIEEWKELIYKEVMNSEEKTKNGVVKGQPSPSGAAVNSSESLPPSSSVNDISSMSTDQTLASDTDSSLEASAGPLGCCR
T1 sequence (P21127 whole entry): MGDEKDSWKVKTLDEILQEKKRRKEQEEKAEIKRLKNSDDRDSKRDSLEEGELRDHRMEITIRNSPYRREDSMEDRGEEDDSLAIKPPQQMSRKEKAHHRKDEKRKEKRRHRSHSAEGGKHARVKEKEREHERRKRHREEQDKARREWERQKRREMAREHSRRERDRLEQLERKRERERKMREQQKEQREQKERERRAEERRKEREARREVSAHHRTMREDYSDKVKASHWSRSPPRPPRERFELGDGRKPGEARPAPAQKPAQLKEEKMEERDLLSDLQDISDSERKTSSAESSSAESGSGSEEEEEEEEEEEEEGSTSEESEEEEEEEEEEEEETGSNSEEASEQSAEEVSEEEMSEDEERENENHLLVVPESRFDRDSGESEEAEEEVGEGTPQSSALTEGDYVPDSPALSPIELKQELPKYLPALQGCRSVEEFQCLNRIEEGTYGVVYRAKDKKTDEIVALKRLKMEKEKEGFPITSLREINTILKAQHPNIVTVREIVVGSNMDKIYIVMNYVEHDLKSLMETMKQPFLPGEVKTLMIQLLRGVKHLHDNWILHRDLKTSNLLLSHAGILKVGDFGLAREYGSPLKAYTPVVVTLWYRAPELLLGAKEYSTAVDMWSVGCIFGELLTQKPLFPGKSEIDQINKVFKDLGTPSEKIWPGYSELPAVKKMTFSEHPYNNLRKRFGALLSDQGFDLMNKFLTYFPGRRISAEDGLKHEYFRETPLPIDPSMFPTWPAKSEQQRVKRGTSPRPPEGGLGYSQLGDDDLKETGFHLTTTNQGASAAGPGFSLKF
Sequence of CHEK2 (O96017 whole entry): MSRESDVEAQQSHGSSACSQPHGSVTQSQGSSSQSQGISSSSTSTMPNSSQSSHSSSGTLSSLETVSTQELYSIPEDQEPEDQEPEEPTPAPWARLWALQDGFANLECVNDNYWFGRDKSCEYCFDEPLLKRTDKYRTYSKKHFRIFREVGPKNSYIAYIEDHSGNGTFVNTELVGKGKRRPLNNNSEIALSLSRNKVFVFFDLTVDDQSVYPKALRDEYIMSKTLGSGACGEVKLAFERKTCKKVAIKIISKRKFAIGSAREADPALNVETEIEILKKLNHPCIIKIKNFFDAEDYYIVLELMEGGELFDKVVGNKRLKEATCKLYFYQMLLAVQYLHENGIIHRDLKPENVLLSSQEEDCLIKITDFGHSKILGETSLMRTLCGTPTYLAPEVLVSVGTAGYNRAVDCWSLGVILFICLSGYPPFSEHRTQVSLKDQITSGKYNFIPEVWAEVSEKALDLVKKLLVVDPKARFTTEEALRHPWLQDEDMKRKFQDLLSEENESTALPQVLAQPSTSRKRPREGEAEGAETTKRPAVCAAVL

In the case of `NC(=O)c1cccc2cn(-c3ccc([C@@H]4CCCNC4)cc3)nc12` [Niraparib], the percent of control binding at 10 µM in assay [1] (setting [11]) was found to be 78%; in assay [2] (setting [11]) it was 100%; in assay [3] (setting [11]), 89%; in assay [4] (setting [11]), 98%; in assay [5] (setting [11]), 83%; in [6] (setting [11]), 88%. For the same molecule, the percent of control binding at 10 µM in [7] (setting [11]) amounted to 80%; in [8] (setting [11]) it was 85%; in [9] (setting [11]) it was 100%; in assay [10] (setting [11]) it was 86%.
Turning to `Cn1ncnc1[C@H]1c2n[nH]c(=O)c3cc(F)cc(c23)N[C@@H]1c1ccc(F)cc1` [Talazoparib], the percent of control binding at 10 µM is 86% in [1] (setting [12]); 100% in assay [2] (setting [12]); 93% in assay [3] (setting [12]); 100% in assay [4] (setting [12]); 98% in assay [5] (setting [12]); 91% in assay [6] (setting [12]). Further, the percent of control binding at 10 µM was found to be 92% in [7] (setting [12]), 78% in [8] (setting [12]), 100% in [9] (setting [12]) and 85% in assay [10] (setting [12]).
On to `CNCc1ccc(-c2[nH]c3cc(F)cc4c3c2CCNC4=O)cc1` [Rucaparib], for which the percent of control binding at 10 µM was 79% in assay [1] (setting [13]); 99% in [2] (setting [13]); 76% in [3] (setting [13]); 97% in [4] (setting [13]); 94% in assay [5] (setting [13]); 71% in assay [6] (setting [13]). Also, the percent of control binding at 10 µM in assay [7] (setting [13]) was 87%; in [8] (setting [13]), 72%; in [9] (setting [13]), 80%; in assay [10] (setting [13]) it was 72%.
In the case of `O=C(c1cc(Cc2n[nH]c(=O)c3ccccc23)ccc1F)N1CCN(C(=O)C2CC2)CC1` [Olaparib], the percent of control binding at 10 µM in [1] (setting [14]) is 96%; in assay [2] (setting [14]), 99%; in [3] (setting [14]), 94%; in [4] (setting [14]) it was 100%; in assay [5] (setting [14]), 92%; in assay [6] (setting [14]), 86%. The percent of control binding at 10 µM was 96% in [7] (setting [14]), 100% in [8] (setting [14]), 96% in assay [9] (setting [14]) and 83% in assay [10] (setting [14]).

The values above are taken from PMC7026418, “The kinase polypharmacology landscape of clinical PARP inhibitors” (Scientific Reports, 2020).
